Common to all, as to experiment: DTP human tumour cell line panel, 48 h
Assay [1] has as its system UACC-62 melanoma.
Assay [2] relates to SK-MEL-2 melanoma.
Assay [3] deals with OVCAR-5 ovarian.
Assay [4] relates to HL-60(TB) leukemia.
The test system of assay [5] is CAKI-1 renal.
Assay [6] relates to EKVX NSCLC.
Assay [7] relates to LOX IMVI melanoma.
The subject of assay [8] is NCI-H460 lung.
For assay [9], the system named is MDA-MB-231 breast.
Assay [10] has as its system HCC-2998 colon.
Assay [11] has as its system DU-145 prostate.
Assay [12] deals with MCF7 breast.
Assay [13] deals with UACC-257 melanoma.
The subject of assay [14] is HCT-15 colon.
The subject of assay [15] is 786-0 renal.
Assay [16] relates to RPMI-8226 leukemia.
The test system of assay [17] is SF-539 CNS.
Assay [18] relates to NCI-H522 lung.

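Exposure lasted 48 hours, with cells grown in 96-well plates and compounds tested at five concentrations. TGI is the concentration that stops growth completely.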

Broadly, the TGI is the concentration giving total growth inhibition. The low end stands for greater sensitivity of the cells, the high end for lower sensitivity of the cells.

As to `c1ccc(C2C3=C(c4ccccc4CC3)N3c4cc5nc6ccccc6nc5cc4NC34CCCCC24)cc1` (stereo unspecified), the TGI was more than 10 µM in assay [1]; more than 10 µM in assay [2]; more than 10 µM in assay [3]; more than 6.29 µM in assay [4]; more than 10 µM in assay [5]; more than 10 µM in assay [6]. The TGI in [7], in assay [8], in assay [9], in [10], in assay [11] and in assay [12] was more than 10 µM each time. The TGI in assay [13] was more than 10 µM; in assay [14] it was more than 10 µM; in [15], more than 10 µM; in assay [16] it was more than 9.17 µM; in assay [17], more than 10 µM.

Consider `O=C(c1ccccc1)c1ccc(N2C(=O)/C(=C/c3cccc([N+](=O)[O-])c3)N=C2c2ccccc2)c(N2C(=O)/C(=C/c3cccc([N+](=O)[O-])c3)N=C2c2ccccc2)c1`, for which the TGI in assay [1] was more than 100 µM; in assay [2], more than 100 µM; in assay [3], more than 100 µM; in [4], 15.8 µM; in assay [5] it was more than 100 µM; in assay [6] it was more than 100 µM. Also, the TGI in assay [7] was more than 100 µM; in assay [8], more than 100 µM; in assay [9] it was more than 100 µM; in assay [10], 60.1 µM; in [11], more than 100 µM; in [12], more than 100 µM. Moreover, the TGI in [13], in assay [14], in [15], in assay [16] and in assay [17] was more than 100 µM each time.

For `CNC(=O)Nn1c(SC)nc2ccccc21`, the TGI in assay [1], in assay [2], in assay [3], in [4], in assay [5] and in [6] was more than 100 µM each time. The TGI in assay [7], in assay [8], in [9], in assay [10], in assay [11] and in [12] was more than 100 µM throughout. For the same compound, the TGI in [13], in assay [14], in assay [18], in [15] and in [16] was more than 100 µM throughout.

For `COCN1C(=O)[C@@H]2CCCN2C(=O)c2ccc(Cl)cc21`, the TGI in assay [1], in [2], in [3], in assay [4], in assay [5] and in assay [6] was more than 100 µM throughout. Further, the TGI in assay [7], in [8], in assay [9], in assay [10], in [11] and in [12] was more than 100 µM each time. The TGI in [13], in assay [14], in assay [18], in assay [15] and in assay [16] was more than 100 µM in each case.

In the case of `CCCc1c(O)c2ccccc2[nH]c1=O`, the TGI in assay [3], in [4], in [5], in assay [6], in [7] and in assay [8] was more than 100 µM throughout. The TGI in assay [9], in [10], in [11], in [12], in assay [13] and in assay [14] was more than 100 µM in each case. Besides, the total growth inhibition concentration (TGI) in [18], in assay [15], in assay [16] and in assay [17] was more than 100 µM throughout.

On to `COc1ccc(-c2c(C(C)=O)c(C)n(C3OC(COC(C)=O)C(OC(C)=O)C(OC(C)=O)C3OC(C)=O)c(=S)c2C#N)cc1` (stereo unspecified), for which the total growth inhibition concentration (TGI) in assay [1], in [2], in assay [3], in assay [4], in assay [5] and in assay [7] was more than 100 µM in each case. Further, the TGI in [8], in assay [9], in [10], in assay [11], in [12] and in [13] was more than 100 µM each time. Besides, the TGI in [14], in [18], in [15] and in assay [17] was more than 100 µM throughout.

Take `O=C(Nn1c(-c2ccccc2)nc2ccccc2c1=O)c1ccc([N+](=O)[O-])cc1`: the concentration for total growth inhibition (TGI) in assay [1], in assay [3], in assay [4], in assay [6], in assay [7] and in [8] was more than 100 µM each time. Besides, the TGI in [9], in assay [10], in assay [11], in [12], in assay [13] and in assay [14] was more than 100 µM in each case. Also, the TGI in [18], in assay [15], in assay [16] and in [17] was more than 100 µM throughout.

Turning to `CCOC(=O)C1C(c2ccccc2)C2(C#N)C(=N)OC1(C)C2(C#N)C#N` (stereo unspecified), the TGI in assay [1] was 82.6 µM; in [2] it was 59.6 µM; in [3] it was 72.6 µM; in assay [4] it was 55.7 µM; in [5] it was 20.3 µM; in assay [6], more than 100 µM. Besides, the TGI in assay [7] was 29.4 µM; in assay [9], 26.7 µM; in assay [10], 27 µM; in assay [11], more than 100 µM; in assay [12], more than 100 µM; in assay [13], 54.2 µM. The TGI is more than 100 µM in assay [14], 26.4 µM in assay [15], 42.6 µM in assay [16] and 37.4 µM in assay [17].

For `CNC(=S)N/N=C(\C)c1cc(OC)c(OC)cc1O`, the TGI in [1], in assay [2], in assay [3], in [4], in assay [5] and in assay [6] was more than 100 µM throughout. In addition, the TGI in assay [8], in assay [9], in assay [10], in assay [11], in assay [12] and in assay [13] was more than 100 µM each time. Further, the TGI in [14], in assay [15], in [16] and in [17] was more than 100 µM in each case.

Regarding `CCc1nc2c(n1CC)C(=O)c1ccccc1C2=O`, the TGI in assay [1] is more than 100 µM; in [3], more than 100 µM; in assay [4], more than 100 µM; in [6] it was more than 100 µM; in assay [8], more than 100 µM; in assay [9], 49.4 µM. Moreover, the TGI in assay [10] is more than 100 µM; in assay [11], more than 100 µM; in [12], more than 100 µM; in assay [13] it was 51.4 µM; in assay [14], more than 100 µM; in assay [18] it was 96 µM. Also, the TGI in assay [15], in assay [16] and in [17] was more than 100 µM each time.

Consider `CC(=O)OC12c3ccccc3C(c3ccccc31)C1C(=O)N(Nc3ccccc3)C(=O)C12` (stereo unspecified), for which the total growth inhibition concentration (TGI) in assay [3], in assay [4], in assay [5], in [6], in [7] and in assay [8] was more than 100 µM in each case. Also, the TGI in assay [9], in assay [10], in assay [11], in [12], in [13] and in assay [14] was more than 100 µM each time. In addition, the TGI in assay [15], in [16] and in assay [17] was more than 100 µM throughout.

Turning to `COc1cc(/C=C2\N=C(c3ccccc3)N(c3ccc4c(c3)Sc3cc(N5C(=O)/C(=C/c6cc(OC)c(OC)c(OC)c6)N=C5c5ccccc5)ccc3N4)C2=O)cc(OC)c1OC`, the TGI in assay [1] turned out to be 31.4 µM; in assay [2], 36.5 µM; in assay [3], 39.6 µM; in assay [4], 65.3 µM; in assay [5], 37.1 µM; in [6] it was 54.6 µM. Further, the concentration for total growth inhibition (TGI) in assay [7] is 52 µM; in assay [8] it was more than 100 µM; in assay [9], 67.8 µM; in [10], 50.6 µM; in [11], more than 100 µM; in assay [12], 37.1 µM. Besides, the TGI in assay [13] is 31.3 µM; in assay [14] it was more than 100 µM; in assay [18] it was 42.5 µM; in assay [15] it was 40.9 µM; in assay [16] it was 88.9 µM.

On to `CC1(C)CCCCC1/C=C/C(CC(O)(C(F)(F)F)C(F)(F)F)=N\Nc1ccc([N+](=O)[O-])cc1[N+](=O)[O-]` (stereo unspecified), for which the TGI in assay [1] was 13.9 µM; in assay [2], 30 µM; in assay [3], 13.1 µM; in assay [4], more than 100 µM; in assay [7], 10.6 µM; in assay [8], 6.73 µM. Moreover, the TGI was 9.62 µM in [9]; more than 100 µM in assay [10]; 13.4 µM in assay [11]; 5.42 µM in assay [12]; 7.55 µM in assay [13]; more than 100 µM in assay [14]. Also, the TGI is 13.1 µM in [18], 4.7 µM in assay [15], 1.27 µM in assay [16] and 0.973 µM in [17].

For the origin of these results see PubChem BioAssay (NCI).
